# Laboratory results: PMC6348443 (Journal of Medicinal Chemistry, 2018)
# Counter-ions that a name gives are not always drawn.
# Key:
# [1] = target: T1, MOR (Rattus norvegicus, UniProt P33535); assay: competition radioligand binding, rat brain membranes, [3H]DAMGO; conditions: for Ki: rat brain membranes, read-out: opioid receptor binding Ki MOR; for Ki ratio MOR/DOR/KOR: from Ki in rat (MOR, DOR) and guinea-pig (KOR) brain membranes
# T1 construct: Membranes were prepared from Sprague-Dawley rat brains or guinea-pig brains according to the described procedures; tissue Labortierkunde und Laborgenetik, Medizinische Universität Wien; host or cells: Sprague-Dawley rat brain without cerebella
# Experimental: (§1) Competition binding assays using rat brain (MOR and DOR) and guinea-pig brain (KOR) membranes (Table 1) were performed according to published procedures.[44],[49] […] In addition, we have assessed binding at the human opioid receptors stably transfected in Chinese hamster ovary (CHO) cells (Table S1).
# (§2) Membranes were prepared from Sprague-Dawley rat brains or guinea-pig brains according to the described procedures.[44],[45] Brains without cerebella were homogenized on ice in 5 vol/wt of ice-cold 50 mM Tris-HCl buffer (pH 7.4) and diluted in 30 vol/wt of the same buffer. After centrifugation at 40 000g for 20 min at 4 °C, the pellets were resuspended in 30 vol/wt of 50 mM Tris-HCl buffer (pH 7.4) and incubated at 37 °C for 30 min. The centrifugation step described above was repeated, and the final pellets were resuspended in 5 vol/wt of 50 mM Tris-HCl buffer (pH 7.4) containing 0.32 M sucrose and stored at −80 °C until use.
# (§3) Rat brain membranes were incubated with either [^3H]DAMGO (1 nM, 45 min, 35 °C) or [^3H][Ile^5,6]deltorphin II (0.5 nM, 45 min, 35 °C) for labeling MOR or DOR receptors, respectively. Guinea-pig brain membranes were incubated with [^3H]U69,593 (1 nM, 30 min, 30 °C) for labeling KOR. Binding assays with CHO cell membranes were conducted at 25 °C for 60 min using [^3H]DAMGO (1 nM) or [^3H]diprenorphine (0.2 nM) for labeling MOR or DOR, respectively. Nonspecific binding was determined using 10 μM naloxone (rodent brain) or 1–10 μM of the unlabeled counterpart of each radioligand (CHO cells). Reactions were terminated by rapid filtration through Whatman glass fiber GF/C filters. Filters were washed three times with 5 mL of ice-cold 50 mM Tris-HCl buffer (pH 7.4) using a Brandel M24R cell harvester (Gaithersburg, MD). Radioactivity retained on the filters was counted by liquid scintillation counting using a Beckman Coulter LS6500 (Beckman Coulter Inc., Fullerton, CA). All binding experiments were performed in duplicate and repeated at least three times.
# (§4) Data were analyzed and graphically processed using the GraphPad Prism 5.0 Software (GraphPad Prism Software Inc., San Diego, CA). For in vitro assays, inhibition constant (Ki in nM), potency (EC50 in nM), and efficacy (% stimulation) values were determined from concentration–response curves by nonlinear regression analysis. The Ki values were determined by the method of Cheng and Prusoff.[66] In the [^35S]GTPγS binding assays, efficacy was determined relative to the reference full opioid agonists, DAMGO (MOR), DPDPE (DOR), and U69,593 (KOR). In vitro data are presented as mean ± SEM of three to four independent experiments each performed in duplicate. […] Each experimental group included six to seven mice. Data were statistically evaluated using one-way ANOVA with Tukey’s post hoc test for multiple comparisons with significance set at P < 0.05.
# [2] = target: T2, DOR (Rattus norvegicus, UniProt P33533); assay: competition radioligand binding, rat brain membranes, [3H][Ile5,6]deltorphin II; conditions: rat brain membranes; read-out: opioid receptor binding Ki DOR
# T2 construct: Membranes were prepared from Sprague-Dawley rat brains or guinea-pig brains according to the described procedures; tissue Labortierkunde und Laborgenetik, Medizinische Universität Wien; host or cells: Sprague-Dawley rat brain without cerebella
# Experimental: as §1, §2, §3, §4
# [3] = target: T3, KOR (Cavia porcellus, UniProt P41144); assay: competition radioligand binding, guinea-pig brain membranes, [3H]U69,593; conditions: guinea-pig brain membranes; read-out: opioid receptor binding Ki KOR
# T3 construct: Membranes were prepared from Sprague-Dawley rat brains or guinea-pig brains according to the described procedures; tissue Labortierkunde und Laborgenetik, Medizinische Universität Wien; host or cells: guinea-pig brain without cerebella
# Experimental: as §1, §2, §3, §4
# [4] = target: T4, MOR (Homo sapiens, UniProt P35372); assay: [35S]GTPγS binding assay, CHO-hMOR membranes; assay type: biochemical; conditions: for EC50: [35S]GTPγS, CHO human MOR membranes, read-out: MOR EC50; for Emax: read-out: MOR % stim.
# T4 construct: host or cells: CHO (CHO-hMOR)
# Experimental: (§5) Efficacies are presented as percentage stimulation relative to the standard full agonists, [D-Ala^2,N-Me-Phe4,Gly-ol^5]enkephalin (DAMGO for MOR),[53] [D-Pen^2,D-Pen^5]enkephalin (DPDPE for DOR)[54] and N-methyl-2-phenyl-N-[(5R,7S,8S)-7-(pyrrolidin-1-yl)-1-oxaspiro[4.5]dec-8-yl]acetamide (U69,593 for KOR).[55]
# (§6) Membranes from CHO cells expressing human opioid receptors were prepared in 50 mM Tris-HCl buffer (pH 7.7) according to a previously described procedure.[64] Cells expressing human opioid receptors grown at confluence were removed from the culture plates by scraping, homogenized in 50 mM Tris buffer (pH 7.7), using a Polytron homogenizer, then centrifuged once and washed by an additional centrifugation at 27 000g for 15 min, at 4 °C. The final pellet was resuspended in Tris buffer and stored at −80 °C until use. Protein content of brain and cell membrane preparation homogenates was determined by the method of Bradford using bovine serum albumin as the standard.[65]
# (§7) Binding of [^35S]GTPγS to membranes from CHO cells stably expressing the human opioid receptors was conducted according to the published procedures.[49],[64] Cell membranes (5–10 μg) in 20 mM HEPES, 10 mM MgCl2, and 100 mM NaCl (pH 7.4) were incubated with 0.05 nM [^35S]GTPγS, 10 μM GDP, and various concentrations of test compound in a final volume of 1 mL, for 60 min at 25 °C. Nonspecific binding was determined using 10 μM GTPγS, and the basal binding was determined in the absence of test ligand. Samples are filtered over glass Whatman glass GF/B fiber filters and counted as described for binding assays. All experiments were performed in duplicate and repeated at least three times.
# as §4
# [5] = target: T5, DOR (Homo sapiens, UniProt P41143); assay: [35S]GTPγS binding assay, CHO-hDOR membranes; assay type: biochemical; conditions: for EC50: [35S]GTPγS, CHO human DOR membranes; for Emax: relative to reference full agonist DPDPE, read-out: DOR % stim.
# T5 construct: host or cells: CHO (CHO-hDOR)
# Experimental: as §5, §6, §7, §4
# [6] = target: T6, KOR (Homo sapiens, UniProt P41145); assay: [35S]GTPγS binding assay, CHO-hKOR membranes; assay type: biochemical; conditions: for EC50: [35S]GTPγS, CHO human KOR membranes, read-out: KOR EC50; for functional profile at KOR (full/partial agonist): partial agonist <85% of the response to U69,593; for Emax: relative to reference full agonist U69,593, read-out: KOR % stim.
# T6 construct: host or cells: CHO (CHO-hKOR)
# Experimental: as §5, §6, §7, §4
# [7] = test system: male CD1 mice; assay: acetic acid-induced writhing assay after sc administration; assay type: in vivo, mouse; conditions: for ED50: Mus musculus, 0.5 h, read-out: ED50 (95% CI), mice, sc, inhibition of writhing 30 min after drug administration
# Experimental: Solutions of test compounds were prepared in sterile physiological 0.9% saline and further diluted to working doses in saline solution. Test compounds or saline (control) were administered by sc route in a volume of 10 μL/1 g of body weight. All doses are expressed in terms of salts. Separate groups of mice received the respective dose of compound, and individual mice were only used once for behavioral testing.
# Writhing was induced in male CD1 mice by ip injection of a 0.6% acetic acid aqueous solution as described previously.[48],[62] Groups of mice were administered sc different doses of test compound or saline (control), and 5 min prior to testing (25 min after drug or saline), each animal received an ip injection of acetic acid solution. Each mouse was placed in individual transparent Plexiglas chambers, and the number of writhes was counted during a 10 min observation period. […] For the antagonism study, naloxone methiodide was sc co-administered with the respective opioid agonist, and writhing was assessed as described above.
# as §4
# [8] = target: T5, DOR; assay: competition radioligand binding, CHO cell membranes expressing human DOR, [3H]diprenorphine
# Experimental: as §6, §3
# aDetermined in competition radioligand binding assays using CHO cell membranes expressing
# human MOR and DOR. Values represent the mean ± SEM of three independent experiments each
# [9] = relative to reference full agonist DAMGO
smiles,measurement,setting,value
CO[C@@]12CC[C@@H](N[C@@H](C(=O)O)C(C)C)[C@@H]3Oc4c(O)ccc5c4[C@@]31CCN(C)[C@@H]2C5 [Compound 16b],Ki,[1],1.02 ± 0.07 nM
same,increase in MOR binding affinity vs comparator,"[1]; rat brain, 17b vs 4b, 16a/b vs 7a/b, 22a/b vs 7a, 7b and 9b, 14a vs 14b",2–3 times
same,Ki,[2],1.68 ± 0.16 nM
same,Ki,[3],159 ± 17 nM
same,EC50,[4],2.38 ± 0.77 nM
same,functional profile at MOR (full/partial agonist),[4]; full agonist ≥85% of the response to DAMGO,full agonist
same,MOR % stim.,[4]; [9],101 ± 5%
same,Emax,[4]; [9],101%
same,EC50,[5],1.3 ± 0.64 nM
same,Emax,[5],99 ± 0.2%
same,EC50,[6],1280 ± 283 nM
same,functional profile at KOR (full/partial agonist),[6],full agonists
same,Emax,[6],98 ± 16%
same,ED50,[7],< 0.02 mg/kg
same,ED50 (95% CI),"[7]; mice, inhibition of writhing 30 min after drug administration",14.0 (5.90–33.3) μg/kg
same,increased antinociceptive potency vs comparator,"[7]; writhing assay, 3a vs 3b, 4a vs 4b, 16b vs 7a (so in the source)",8 times
CO[C@@]12CC[C@H](NCCCC(=O)O)[C@@H]3Oc4c(O)ccc5c4[C@@]31CCN(C)[C@@H]2C5 [Compound 21a],Ki ratio MOR/DOR/KOR,[1],1/16/59
same,Ki,[1],0.77 ± 0.07 nM
same,Ki,[2],12.5 ± 0.7 nM
same,Ki,[3],45.6 ± 4.4 nM
same,EC50,[4],2.88 ± 0.82 nM
same,Emax,[4]; [9],103 ± 4%
same,EC50,[5],34.4 ± 6.5 nM
same,Emax,[5],103 ± 1%
same,EC50,[6],2030 ± 253 nM
same,Emax,[6],104 ± 9%
same,ED50,[7],0.0419 mg/kg
"CO[C@@]12CC[C@H](NCCC(=O)O)[C@@H]3Oc4c(O)ccc5c4[C@@]31CCN(C)[C@@H]2C5 [Compound 20a, 3-[(4,5α-Epoxy-3-hydroxy-14β-methoxy-17-methylmorphinan-6α-yl)amino]propionic Acid Dihydrochloride]",Ki ratio MOR/DOR/KOR,[1],1/46/140
same,Ki,[1],1.3 ± 0.08 nM
same,Ki,[2],60 ± 1.9 nM
same,Ki,[3],182 ± 8 nM
same,EC50,[4],3.52 ± 1.65 nM
same,Emax,[4]; [9],99 ± 7%
same,EC50,[5],96.4 ± 8.7 nM
same,Emax,[5],97 ± 2%
same,EC50,[6],186 ± 15 nM
same,Emax,[6],78 ± 9%
same,ED50,[7],0.0312 mg/kg
CO[C@@]12CC[C@@H](N[C@@H](C)C(=O)O)[C@@H]3Oc4c(O)ccc5c4[C@@]31CCN(C)[C@@H]2C5 [Compound 3b],Emax,[4]; [9],87 ± 6%
same,EC50,[5],5.2 ± 1.7 nM
same,Emax,[5],104 ± 6%
same,EC50,[6],392 ± 160 nM
same,functional profile at KOR (full/partial agonist),[6],partial agonist
same,Emax,[6],64 ± 9%
same,ED50,[7],0.0863 mg/kg
same,Ki,[8],8.43 ± 2.1 nM
"CO[C@@]12CC[C@@H](NC(C)C(=O)O)[C@@H]3Oc4c(O)ccc5c4[C@@]31CCN(C)[C@@H]2C5 (stereo in doubt) [Compound 15b, (2S)-2-[(4,5α-Epoxy-3-hydroxy-14β-methoxy-17-methylmorphinan-6β-yl)amino]propanoic Acid Dihydrochloride]",Ki,[2],11.3 ± 0.9 nM
same,Ki,[3],142 ± 33 nM
same,Emax,[4]; [9],102 ± 9%
same,increased agonist potency at DOR vs MOR,[5]; [35S]GTPγS EC50,2–4 times
same,EC50,[5],5.46 ± 2.68 nM
same,Emax,[5],106 ± 6%
same,EC50,[6],1000 ± 192 nM
same,functional profile at KOR (full/partial agonist),[6],full agonists
same,Emax,[6],86 ± 2%
same,Ki,[8],11.5 ± 2.6 nM
